Literature values, collected in publication PMC9851200, “Multiparameter phenotypic screening for endogenous TFEB and TFE3 translocation identifies novel chemical series modulating lysosome function” (Autophagy, 2022).

How the values were obtained:
Design in all cases: method as in original PKIS2 published data
[1] = target: T1, kinases (KINOMEscan panel) (Homo sapiens, UniProt Q13470); details: TNK1; Published KINOMEscan; ref original PKIS2 published data; cited from earlier work
T1 sequence (Q13470 1-666): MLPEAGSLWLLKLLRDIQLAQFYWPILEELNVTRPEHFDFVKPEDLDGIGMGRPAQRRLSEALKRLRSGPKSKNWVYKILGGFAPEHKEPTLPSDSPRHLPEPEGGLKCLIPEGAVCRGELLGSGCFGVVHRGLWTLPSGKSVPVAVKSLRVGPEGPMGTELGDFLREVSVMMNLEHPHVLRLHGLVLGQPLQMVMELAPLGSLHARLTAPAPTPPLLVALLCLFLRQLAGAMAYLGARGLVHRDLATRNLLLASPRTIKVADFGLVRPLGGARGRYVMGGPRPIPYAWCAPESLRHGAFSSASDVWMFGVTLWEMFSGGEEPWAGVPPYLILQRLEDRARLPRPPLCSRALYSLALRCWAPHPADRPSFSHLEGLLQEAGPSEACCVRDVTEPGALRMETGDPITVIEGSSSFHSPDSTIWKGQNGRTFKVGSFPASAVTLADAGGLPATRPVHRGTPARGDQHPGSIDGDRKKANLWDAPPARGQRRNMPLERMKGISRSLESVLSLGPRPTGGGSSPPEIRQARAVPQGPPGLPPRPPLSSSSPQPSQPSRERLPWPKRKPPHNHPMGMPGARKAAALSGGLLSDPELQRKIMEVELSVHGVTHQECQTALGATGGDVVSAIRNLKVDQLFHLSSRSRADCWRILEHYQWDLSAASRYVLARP

[2] = target: T2, kinases (KINOMEscan panel) (Homo sapiens, UniProt P78356); details: PIP4K2B; Published KINOMEscan; ref original PKIS2 published data; cited from earlier work
T2 sequence (P78356 1-416): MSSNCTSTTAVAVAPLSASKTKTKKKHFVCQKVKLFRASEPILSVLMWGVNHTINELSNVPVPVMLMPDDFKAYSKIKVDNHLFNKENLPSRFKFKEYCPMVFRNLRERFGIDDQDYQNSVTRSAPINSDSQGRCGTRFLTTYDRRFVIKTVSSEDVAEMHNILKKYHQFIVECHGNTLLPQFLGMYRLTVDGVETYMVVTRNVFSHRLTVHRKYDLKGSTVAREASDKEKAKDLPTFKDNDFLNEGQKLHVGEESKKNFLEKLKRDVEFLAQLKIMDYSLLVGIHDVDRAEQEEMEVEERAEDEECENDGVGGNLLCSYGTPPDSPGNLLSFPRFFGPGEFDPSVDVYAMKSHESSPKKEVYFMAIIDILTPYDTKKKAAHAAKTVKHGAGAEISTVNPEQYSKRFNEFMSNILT

[3] = target: T3, kinases (KINOMEscan panel) (Homo sapiens, UniProt Q7L7X3); details: kinase TAOK1; Published KINOMEscan; ref original PKIS2 published data; cited from earlier work
T3 sequence (Q7L7X3 1-1001): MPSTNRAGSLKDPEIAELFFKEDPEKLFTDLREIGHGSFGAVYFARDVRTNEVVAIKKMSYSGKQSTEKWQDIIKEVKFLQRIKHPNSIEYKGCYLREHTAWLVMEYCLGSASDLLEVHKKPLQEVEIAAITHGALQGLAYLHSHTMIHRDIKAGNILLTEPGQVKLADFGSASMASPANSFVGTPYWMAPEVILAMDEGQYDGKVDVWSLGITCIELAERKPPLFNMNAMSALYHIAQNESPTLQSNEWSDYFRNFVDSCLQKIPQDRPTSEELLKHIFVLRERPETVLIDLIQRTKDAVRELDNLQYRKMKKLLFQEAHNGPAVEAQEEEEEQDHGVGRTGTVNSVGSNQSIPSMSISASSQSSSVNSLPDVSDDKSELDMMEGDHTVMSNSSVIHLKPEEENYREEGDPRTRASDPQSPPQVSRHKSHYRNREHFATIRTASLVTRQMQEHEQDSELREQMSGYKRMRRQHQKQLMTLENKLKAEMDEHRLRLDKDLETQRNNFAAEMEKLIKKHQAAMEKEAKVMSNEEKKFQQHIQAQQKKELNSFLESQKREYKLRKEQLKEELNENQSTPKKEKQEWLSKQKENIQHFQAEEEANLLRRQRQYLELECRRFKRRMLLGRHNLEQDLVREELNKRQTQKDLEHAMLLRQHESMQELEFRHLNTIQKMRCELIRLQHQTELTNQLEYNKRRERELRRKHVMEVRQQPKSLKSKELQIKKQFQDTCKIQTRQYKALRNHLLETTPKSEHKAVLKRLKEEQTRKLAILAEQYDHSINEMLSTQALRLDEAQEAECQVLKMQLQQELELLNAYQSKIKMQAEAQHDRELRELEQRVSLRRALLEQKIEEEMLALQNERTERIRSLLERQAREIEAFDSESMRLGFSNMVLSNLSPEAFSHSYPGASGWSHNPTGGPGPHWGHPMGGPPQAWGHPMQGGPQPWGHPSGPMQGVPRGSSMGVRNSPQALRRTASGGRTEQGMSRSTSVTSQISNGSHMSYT

[4] = target: kinases (KINOMEscan panel) (Homo sapiens, UniProt P54764); details: EPHA4; Published KINOMEscan; ref original PKIS2 published data; cited from earlier work
kinases (KINOMEscan panel) (Homo sapiens, UniProt P54764), sequence (P54764 20-986): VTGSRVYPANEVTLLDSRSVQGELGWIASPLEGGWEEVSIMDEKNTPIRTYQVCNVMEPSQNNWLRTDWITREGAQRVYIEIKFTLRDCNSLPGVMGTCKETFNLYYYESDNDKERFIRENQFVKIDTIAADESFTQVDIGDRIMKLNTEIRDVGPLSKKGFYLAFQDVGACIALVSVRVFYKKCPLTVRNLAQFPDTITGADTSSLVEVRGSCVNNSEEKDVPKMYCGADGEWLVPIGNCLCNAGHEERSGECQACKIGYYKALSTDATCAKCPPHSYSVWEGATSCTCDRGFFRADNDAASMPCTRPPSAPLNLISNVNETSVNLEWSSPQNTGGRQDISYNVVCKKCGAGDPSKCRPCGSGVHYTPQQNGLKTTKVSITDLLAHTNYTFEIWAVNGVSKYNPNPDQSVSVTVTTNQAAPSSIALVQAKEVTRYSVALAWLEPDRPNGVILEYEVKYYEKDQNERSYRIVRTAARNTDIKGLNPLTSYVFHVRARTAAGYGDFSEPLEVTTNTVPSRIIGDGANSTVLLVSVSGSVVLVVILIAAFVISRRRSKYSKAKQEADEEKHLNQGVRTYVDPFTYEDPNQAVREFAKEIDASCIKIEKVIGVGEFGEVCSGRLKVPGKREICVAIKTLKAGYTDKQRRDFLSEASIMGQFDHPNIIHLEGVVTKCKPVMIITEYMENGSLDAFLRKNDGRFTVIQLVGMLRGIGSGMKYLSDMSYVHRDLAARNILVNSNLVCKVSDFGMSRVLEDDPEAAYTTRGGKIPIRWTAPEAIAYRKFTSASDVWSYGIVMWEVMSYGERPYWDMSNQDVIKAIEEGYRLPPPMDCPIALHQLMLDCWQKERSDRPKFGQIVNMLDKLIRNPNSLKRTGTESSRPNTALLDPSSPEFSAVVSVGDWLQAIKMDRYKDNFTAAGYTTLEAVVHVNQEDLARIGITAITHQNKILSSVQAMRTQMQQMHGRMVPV

[5] = target: T4, kinases (KINOMEscan panel) (Homo sapiens, UniProt P15735); details: kinase PHKG2; Published KINOMEscan; ref original PKIS2 published data; cited from earlier work
T4 sequence (P15735 1-406): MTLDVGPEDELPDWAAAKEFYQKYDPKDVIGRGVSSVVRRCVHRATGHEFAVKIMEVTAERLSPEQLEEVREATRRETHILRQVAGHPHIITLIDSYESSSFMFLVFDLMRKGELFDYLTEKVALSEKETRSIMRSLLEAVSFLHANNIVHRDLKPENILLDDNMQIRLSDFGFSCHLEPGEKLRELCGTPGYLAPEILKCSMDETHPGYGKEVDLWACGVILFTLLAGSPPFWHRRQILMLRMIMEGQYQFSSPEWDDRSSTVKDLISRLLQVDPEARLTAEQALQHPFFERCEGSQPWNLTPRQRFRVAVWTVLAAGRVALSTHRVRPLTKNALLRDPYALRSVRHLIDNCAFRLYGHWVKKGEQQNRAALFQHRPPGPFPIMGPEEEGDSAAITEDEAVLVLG

[6] = target: kinases (KINOMEscan panel) (Homo sapiens, UniProt Q9UEW8); details: Published KINOMEscan; ref original PKIS2 published data; cited from earlier work

Cc1cccc(-c2nc(Nc3ccncc3)c3ccccc3n2)n1 [NK215]
KINOMEscan TNK1 [1]: 39 | KINOMEscan PIP4K2B [2]: 0 | KINOMEscan TAOK1 [3]: 0 | KINOMEscan EPHA4 [4]: 18 | KINOMEscan PHKG2 [5]: 3 | KINOMEscan STK39 [6]: 0
